Molecules are shown by their SMILES. pIC50: −log10 of the molar value. Where two headings read alike, the source gives them in different places.

The term pIC50 denotes the negative decadic logarithm of the IC50, by convention in mol/L.

Common to all, as to type: cell-based
The subject of assay [1] is M-07e human cytomegalic leukemia cells. Kind of assay: KIT-related cell proliferation experiment (Cell Titer Glo). To be noted: 72 h, M-07e cells, SCF, 3 days, CTG, read-out: Cytological experiment KIT IC50. The protocol: (§1) Functional effects of compounds on the proliferation of several cell lines were evaluated by Cell Titer Glo (CTG) studies in the present invention, and effects of the compounds on the proliferation of different cells were evaluated to determine the selectivity degree of the compounds. In the study, M-07e human cytomegalic leukemia cells (cat. No. CBP60791) from Nanjing Kebai Biotechnology Co., Ltd. were cultured in an incubator under conditions of RPMI1640 (Gibco, cat. No. 11875-119), 20% fetal bovine serum (Gibco, 10099-141), human 10 ng/mL GM-CSF granulocyte macrophage colony-stimulating factors (R&D, cat. No. 215-GM-010), 37° C. and 5% CO2; and Kasumi-1 human acute myeloblastic leukemia cells (cat. No. CBP60524) were cultured in an incubator under conditions of RPMI1640 (Gibco, cat. No. 11875-119), 20% fetal bovine serum (Gibco, 10099-141), 37° C. and 5% CO2; NCI-H1703 human non-small cell lung squamous carcinoma cells (cat. No. CBP60115) were cultured in an incubator under conditions of RPMI1640 (Gibco, cat. No. 11875-119), 10% fetal bovine serum (Gibco, 10099-141), 37° C. and 5% CO2; and MV-4-11 human acute monocytic leukemia cells (cat. No. CBP60522) were cultured in an incubator under conditions of IMDM (Invitrogen, cat. No. 12440053), 20% fetal bovine serum (Gibco, 10099-141), 37° C. and 5% CO2. Since ATP is an index for viable cell metabolism, CTG (Promega, #G7573) reagent is a homogeneous detection method for detecting the number of viable cells in the culture by quantifying ATP. Therefore, compound-mediated inhibition for cell proliferation/survival was evaluated by quantifying ATP content in cells, and the specific experimental process was as follows.
I) M-07e Human Cytomegalic Leukemia Cell: • 1. The cells were plated into a tissue-culture-medium-treated 96-well plate (Costar #3904) with 3500 cells/well/80 μL fresh culture medium, and cultured for 24 hrs; • 2. the next day, 10 μL of culture medium containing testing compound with 10-fold of final concentration was added to each well; • 3.

The subject of assay [2] is M-NFS-60 mouse myeloid leukemia lymphocytes. The assay is described as follows: CSF-1R-related cell proliferation experiment (Cell Titer Glo). The settings on record: 72 h, M-NFS-60 cells, 3 days, CTG. As for the experimental part:
Functional effects of compounds on cell proliferation were evaluated by using Cell Titer Glo (CTG) study in the present invention. M-NFS-60 mouse myeloid leukemia lymphocytes (cat. No. CCBJ078) from National Institutes For Food and Drug Control were cultured in the incubator under conditions of RPMI 1640 (Gibco, cat. No. 11875-119), 10% fetal bovine serum (Gibco, 10099-141), human 10 ng/mL M-CSF macrophage colony-stimulating factor (R&D, cat. No. MVN0915101), 37° C. and 5% CO2. Since ATP is an index for viable cell metabolism, CTG (Promega, #G7573) reagent is a homogeneous detection method for detecting the number of viable cells in the culture by quantifying ATP. Therefore, compound-mediated inhibition for cell proliferation/survival was evaluated by quantifying ATP in cells, and the specific experimental process was as follows: • 1. The cells were plated into a tissue-culture-medium-treated 96-well plate (Costar #3904) with 5,000 cells/well/80 μL fresh culture medium: • 2. 24 hours later, 10 μL culture medium containing testing compound with 10-fold of final concentration was added to each well; • 3. 10 μL of culture medium containing M-CSF with 10-fold of the final concentration was then added to each well: • 4. dosage effect was evaluated by testing the 3-fold serial dilutions of the compound; • 5. after the cells were incubated for 3 days at 37° C. and 5% CO2, the inhibition on cell survival was quantified after 50 μL of CTG was added and the luminescence assay was performed; • 6. the compound concentration leading to half maximal inhibitory (IC50) and the compound concentration leading to absolute half maximal inhibitory (Absolute IC50) were measured by a plate reader (M1000, Tecan) and a four-parameter curve fit in Graphpad Prism 7. D. CSF-1R-Related Cell Proliferation Experiment
(Cellular ATP, detected with luciferase, serves as a proxy for viable cell number.)

Assay [3] deals with NCI-H1703 human non-small cell lung squamous carcinoma cells. The assay is described as follows: PDGFRA-related cell proliferation experiment (Cell Titer Glo). To be noted: 72 h, 3 days, CTG, read-out: Cytological experiment PDGFRA IC50. The protocol: as §1
II) NCI-H1703 Human Non-Small Cell Lung Squamous Carcinoma Cell • 1.

Assay [4] has as its system MV-4-11 human acute monocytic leukemia cells. The assay is described as follows: FLT3-related cell proliferation experiment (Cell Titer Glo). To be noted: MV4-11, 72 h, MV-4-11 cells, 3 days, CTG, read-out: Cytological experiment FLT3 IC50. The protocol: as §1
III) MV-4-11 Human Acute Monocytic Leukemia Cell • 1.

The mark [5] stands for this setting: absolute half maximal inhibitory concentration, read-out: Cytological experiment CSF-1R Absolute IC50.
Where [6] appears, read: read-out: Cytological experiment CSF1R IC50.

On to `Cc1nc(-c2cnc(NC(C)C)[nH]c2=O)ccc1Cc1c[nH]c2ncc(F)cc12` [Example 5, 5-(5-((5-fluoro-1H-pyrrolo[2,3-b]pyridin-3-yl)methyl)-6-methylpyridin-2-yl)-2-(isopropylamino)pyrimidin-4(3H)-one], for which the pIC50 in assay [1] was 5.95; in assay [2] (setting [5]), 7.32; in assay [2] (setting [6]), 7.11; in assay [3], 5.74; in assay [4] it was under 5.70.
The corresponding values for `Cc1nc(-c2cnc(NC(C)C)n(C)c2=O)ccc1Cc1c[nH]c2ncccc12` [Example 7, 5-(5-((1H-pyrrolo[2,3-b]pyridin-3-yl)methyl)-6-methylpyridin-2-yl)-2-(isopropylamino)-3-methylpyrimidin-4(3H)-one] are 6.08, 7.47, 7.40, under 5.22 and 5.89.
For the molecule `Cc1nc(-c2cnc3n(c2=O)CCCN3C)ccc1Cc1c[nH]c2ncc(Cl)cc12` [Example 13, 3-(5-((5-chloro-1H-pyrrolo[2,3-b]pyridin-3-yl)methyl)-6-methylpyridin-2-yl)-9-methyl-6,7,8,9-tetrahydro-4H-pyrimido[1,2-a]pyrimidin-4-one], the negative-log IC50 (pIC50) in assay [1] was 5.92; in assay [2] (setting [5]), 7.41; in assay [2] (setting [6]) it was 7.33; in assay [3], under 5.22; in assay [4], under 5.22.
In the case of `Cc1nc(-c2cnc3n(c2=O)CCCN3C)ccc1Cc1c[nH]c2ncccc12` [Example 14, 3-(5-((1H-pyrrolo[2,3-b]pyridin-3-yl)methyl)-6-methylpyridin-2-yl)-9-methyl-6,7,8,9-tetrahydro-4H-pyrimido[1,2-a]pyrimidin-4-one], the negative-log IC50 (pIC50) in assay [1] was 4.98; in assay [2] (setting [5]), 6.98; in assay [2] (setting [6]), 7.01; in assay [3], under 4.74; in assay [4], under 4.74.
For `Cc1nc(-c2cnc3n(c2=O)CCC(C)N3C)ccc1Cc1c[nH]c2ncc(Cl)cc12` (stereo not drawn) [Example 15, 3-(5-((5-chloro-1H-pyrrolo[2,3-b]pyridin-3-yl)methyl)-6-methylpyridin-2-yl)-8,9-dimethyl-6,7,8,9-tetrahydro-4H-pyrimido[1,2-a]pyrimidin-4-one], the pIC50 in assay [1] is 6.10; in assay [2] (setting [5]), 7.08; in assay [2] (setting [6]) it was 7.04; in assay [3], under 5.70; in assay [4], under 5.70.
As to `CCN1CCCn2c1ncc(-c1ccc(Cc3c[nH]c4ncc(Cl)cc34)c(C)n1)c2=O` [Example 16, 3-(5-((5-chloro-1H-pyrrolo[2,3-b]pyridin-3-yl)methyl)-6-methylpyridin-2-yl)-9-ethyl-6,7,8,9-tetrahydro-4H-pyrimido[1,2-a]pyrimidin-4-one], the negative-log IC50 (pIC50) is 6.57 in assay [1]; 7.14 in assay [2] (setting [5]); 7.16 in assay [2] (setting [6]); 5.99 in assay [3]; 6.06 in assay [4].
Turning to `CCN1CCCn2c1ncc(-c1ccc(Cc3c[nH]c4ncc(-c5cnn(C)c5)cc34)c(C)n1)c2=O` [Example 17], the pIC50 in assay [1] is 7.41; in assay [2] (setting [6]), 8.20; in assay [2] (Lymphocyte, absolute half maximal inhibitory concentration, read-out: Cytological experiment CSF-1R Absolute IC50), 8.30; in assay [3], 7.24; in assay [4] it was 7.56.
For `Cc1nc(-c2cnc3n(c2=O)CCCN3C)ccc1Cc1c[nH]c2ncc(-c3cnn(C)c3)cc12` [Example 18, 9-methyl-3-(6-methyl-5-((5-(1-methyl-1H-pyrazol-4-yl)-1H-pyrrolo[2,3-b]pyridin-3-yl)methyl)pyridin-2-yl)-6,7,8,9-tetrahydro-4H-pyrimido[1,2-a]pyrimidin-4-one], the negative-log IC50 (pIC50) is 6.63 in assay [1]; 8.31 in assay [2] (setting [5]); 8.30 in assay [2] (setting [6]); 6.35 in assay [3]; 6.30 in assay [4].
Turning to `Cc1nc(-c2cnc3n(c2=O)CCCN3C)ccc1Cc1c[nH]c2ncc(F)cc12` [Example 20, 3-(5-((5-fluoro-1H-pyrrolo[2,3-b]pyridin-3-yl)methyl)-6-methylpyridin-2-yl)-9-methyl-6,7,8,9-tetrahydro-4H-pyrimido[1,2-a]pyrimidin-4-one], the negative-log IC50 (pIC50) in assay [1] was 5.50; in assay [2] (setting [5]), 6.98; in assay [2] (setting [6]) it was 7.04; in assay [3] it was under 4.74; in assay [4], under 4.74.
In the case of `Cc1cnc2[nH]cc(Cc3ccc(-c4cnc5n(c4=O)CCCN5C)nc3C)c2c1` [Example 21, 9-methyl-3-(6-methyl-5-((5-methyl-1H-pyrrolo[2,3-b]pyridin-3-yl)methyl)pyridin-2-yl)-6,7,8,9-tetrahydro-4H-pyrimido[1,2-a]pyrimidin-4-one], the pIC50 in assay [1] is 5.82; in assay [2] (setting [5]), 7.34; in assay [2] (setting [6]) it was 7.27; in assay [3], under 4.74; in assay [4], under 4.74.
For the molecule `COc1cnc2[nH]cc(Cc3ccc(-c4cnc5n(c4=O)CCCN5C)nc3C)c2c1` [Example 22, 3-(5-((5-methoxy-1H-pyrrolo[2,3-b]pyridin-3-yl)methyl)-6-methylpyridin-2-yl)-9-methyl-6,7,8,9-tetrahydro-4H-pyrimido[1,2-a]pyrimidin-4-one], the pIC50 in assay [1] is 5.82; in assay [2] (setting [5]) it was 7.41; in assay [2] (setting [6]), 7.32; in assay [3], under 5.70; in assay [4], under 5.22.
The corresponding values for `Cc1nc(-c2cnc3n(c2=O)CCCN3C)ccc1Cc1c[nH]c2ncc(O)cc12` [Example 23] are 5.73, 6.88, 6.85, under 5.22 and under 5.70.

These data come from patent publication US11180495B2 (Abbisko Therapeutics Co., Ltd., priority 2017, dated 2021).
